{
  "source": "paper PMC10281575",
  "about": "“PfCRT mutations conferring piperaquine resistance in falciparum malaria shape the kinetics of quinoline drug binding and transport” (PLOS Pathogens, 2023)",
  "target": "T1, PfCRT^Dd2_F145I (Plasmodium falciparum, UniProt Q8IBZ9, A220S/F145I/I356T/K76T/M74I/N326S/N75E/Q271E/R371I)",
  "T1 construct": "expressed in transfected cells; host or cells: Xenopus laevis oocytes injected with in vitro transcribed RNA (pSP64T)",
  "T1 sequence (Q8IBZ9 1-424 M74I/N75E/K76T/F145I/A220S/Q271E/N326S/I356T/R371I)": "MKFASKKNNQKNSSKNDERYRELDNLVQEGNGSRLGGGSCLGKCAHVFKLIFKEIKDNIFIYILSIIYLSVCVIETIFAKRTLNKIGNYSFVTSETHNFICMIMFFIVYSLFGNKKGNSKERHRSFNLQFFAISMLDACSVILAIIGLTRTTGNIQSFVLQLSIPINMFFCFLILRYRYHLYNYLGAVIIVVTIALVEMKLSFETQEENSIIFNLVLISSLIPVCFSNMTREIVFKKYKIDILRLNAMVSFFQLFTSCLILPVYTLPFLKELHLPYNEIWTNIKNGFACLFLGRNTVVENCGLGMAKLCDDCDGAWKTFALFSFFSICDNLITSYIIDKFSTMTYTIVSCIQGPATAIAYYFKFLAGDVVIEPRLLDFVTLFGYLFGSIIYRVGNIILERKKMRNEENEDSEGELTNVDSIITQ",
  "assay": "Competition kinetics of drug transport (radiolabeled substrate plus cold inhibitor), PfCRT^Dd2_F145I-expressing oocytes",
  "format": "cell-based",
  "conditions": "for PfCRTDd2_F145I-mediated CQ transport: 500 µM CQ; for Vmax, maximal velocity of drug transport: global fit; for β, partiality factor: factor on transport of the labeled drug by the other drug",
  "procedure": "To further characterize the kinetic relationship between CQ and PPQ, we performed a series of competition reactions. To this end, water-injected oocytes and PfCRT-expressing oocytes were incubated in medium containing one of seven concentrations of radio-labeled CQ and one of six concentrations of cold PPQ for 60 min before the amount of radio-labeled CQ uptake was determined. The rate of PfCRT-mediated CQ uptake was calculated for each condition by subtracting the corresponding value obtained for water-injected oocytes from those of PfCRT-expressing oocytes. The results were analyzed as a function of the CQ concentration (Fig 4A) and 16 different models of substrate competition were globally fit to the data by the least-squares method, using Python. The models were ranked, according to their Akaike information criterion difference (ΔAICC) and their Akaike weight (Fig 4B), with the most plausible model being the one with the lowest AICC (ΔAICC = 0) and the highest Akaike weight.\nA complementary set of experiments was undertaken to investigate the kinetic mechanism by which PfCRT^Dd2_F145I accepts CQ and PPQ (Fig 6). […] These included a global fit of the substrate competition data to the 16 kinetic models (Fig 6), analysis of the secondary plots (Vmax,app and Vmax,app/KM,app as a function of the inhibitor concentration) (Fig 7A), a fractional velocity plot analysis (Fig 7B) and a comparison of the experimental data with the modelled data using the noncompetitive inhibition equation (Fig 7C to 7F). […] The fractional velocity plot illustrated the partial character of the noncompetitive inhibition mechanism by yielding a partiality factor β^CQ = 0.31 ± 0.04, by which PPQ reduces the transport velocity of CQ (Fig 7B). […] A 3D model of the kinetics between PfCRT^Dd2_F145I, CQ and PPQ, and analyses of the residuals as a function of substrate and inhibitor concentrations confirmed that the model was also an appropriate explanation for the mutant transporter (Fig 7C to 7F).\nDrug transport assays were performed as previously described. Briefly, measurements of radiolabeled drug uptake were made over 1 h, unless otherwise specified. […] Where specified, one or more unlabeled drugs were also present at the indicated concentrations. The direction of drug transport in the assays is from the extracellular medium (pH 6) into the oocyte cytosol (pH 7.2), which corresponds to the efflux of CQ or PPQ from the acidic digestive vacuole (pH 5.2) into the parasite cytosol (pH 7.2). The uptake assays were terminated by removing the oocytes from the reaction medium and washing them three times with 2 mL of ice-cold ND96 buffer. Each oocyte was transferred to a separate scintillation vial and lysed by the addition of 200 μL of a 5% SDS solution. The radioactivity in the sample was measured using a liquid scintillation analyser Tri-Carb 4910 TR (PerkinElmer). Water-injected oocytes were analyzed in parallel as a negative control. The buffer from each condition was measured in duplicate in parallel to each experiment to transform counts per minute into pmol of drug. Drug uptake attributable to PfCRT was determined by subtracting the background uptake from water-injected oocytes from that of PfCRT-expressing oocytes. In all cases, at least three independent experiments were performed on oocytes from different frogs, and for each condition in an experiment, measurements were made from 10 oocytes per treatment.\nThe following equations were adopted from Segel (1993), and the reader is referred to that text for the assumptions made in the author’s approach in the derivation of each equation [31]. The concentration of substrate is denoted as [S1] and the concentration of the inhibiting substrate is denoted as [S2]. KS1 and KS2 are the dissociation constants for the respective substrate-protein complexes.\nAnalyses of the kinetic data were performed using SigmaPlot version 13.0 and Python. […]",
  "note": "Several values for one entry are separate records, joined by “and”; a condition that tells them apart may be missing. Equal entries are not always repeated. Where two headings read alike, the source gives them in different places.",
  "data": [
    {"smiles": "CCN(CC)CCCC(C)Nc1ccnc2cc(Cl)ccc12", "note": "(stereo not shown) [CQ, chloroquine]", "values": [
      {"measurement": "PfCRTDd2_F145I-mediated CQ transport", "setting": "200 µM PPQ", "result": "12.08 pmol oocyte-1 h-1 and 15.16 pmol oocyte-1 h-1 and 13.13 pmol oocyte-1 h-1"},
      {"measurement": "PfCRTDd2_F145I-mediated CQ transport", "setting": "350 µM PPQ", "result": "10.85 pmol oocyte-1 h-1 and 12.45 pmol oocyte-1 h-1 and 11.74 pmol oocyte-1 h-1"},
      {"measurement": "most plausible inhibition model", "setting": "16 models, ΔAICC, Akaike weight, secondary plots", "result": "partial noncompetitive inhibition"},
      {"measurement": "Vmax, maximal velocity of drug transport", "setting": "Mixed (Partial) model, drug as radiolabeled substrate", "result": "34 ± 2", "unit": "pmol oocyte^-1 h^-1"},
      {"measurement": "Kd", "setting": "Mixed (Partial) model, drug as cold inhibitor, read-out: KS, dissociation constant for the PfCRT-substrate complex", "result": "200 ± 90", "unit": "µM"},
      {"measurement": "Kd", "setting": "Mixed (Partial) model, drug as radiolabeled substrate, read-out: KS, dissociation constant for the PfCRT-substrate complex", "result": "350 ± 50", "unit": "µM"},
      {"measurement": "β, partiality factor", "setting": "Mixed (Partial) model", "result": "0.41 ± 0.08"},
      {"measurement": "α, KS interaction factor", "setting": "Mixed (Partial) model, label = radiolabeled substrate, other drug cold inhibitor", "result": "1.0 ± 0.3"},
      {"measurement": "Vmax, maximal velocity of drug transport", "setting": "Noncompetitive (Partial) model, drug as radiolabeled substrate, other drug as cold inhibitor", "result": "34 pmol oocyte^-1 h^-1 and 34 ± 2 pmol oocyte^-1 h^-1"},
      {"measurement": "Kd", "setting": "Noncompetitive (Partial) model, drug as cold inhibitor, read-out: KS, dissociation constant for the PfCRT-substrate complex", "result": "225 µM and 230 µM"},
      {"measurement": "Kd", "setting": "Noncompetitive (Partial) model, drug as radiolabeled substrate, read-out: KS, dissociation constant for the PfCRT-substrate complex", "result": "357 µM and 360 µM"},
      {"measurement": "β, partiality factor", "setting": "Noncompetitive (Partial) model", "result": "0.40 and 0.40 ± 0.04"},
      {"measurement": "KMapp ([3H]CQ + PPQ)", "setting": "[PPQ] 0 µM", "result": 355.22, "unit": "µM"},
      {"measurement": "Vmaxapp ([3H]CQ + PPQ)", "setting": "[PPQ] 0 µM", "result": 32.70, "unit": "pmol oocyte-1 h-1"},
      {"measurement": "Vmaxapp/KMapp ([3H]CQ + PPQ)", "setting": "[PPQ] 0 µM", "result": 0.0962, "unit": "h⁻¹"},
      {"measurement": "KMapp ([3H]CQ + PPQ)", "setting": "[PPQ] 50 µM", "result": 351.46, "unit": "µM"},
      {"measurement": "Vmaxapp ([3H]CQ + PPQ)", "setting": "[PPQ] 50 µM", "result": 27.98, "unit": "pmol oocyte-1 h-1"},
      {"measurement": "Vmaxapp/KMapp ([3H]CQ + PPQ)", "setting": "[PPQ] 50 µM", "result": 0.0844, "unit": "h⁻¹"},
      {"measurement": "KMapp ([3H]CQ + PPQ)", "setting": "[PPQ] 125 µM", "result": 355.14, "unit": "µM"},
      {"measurement": "Vmaxapp ([3H]CQ + PPQ)", "setting": "[PPQ] 125 µM", "result": 25.60, "unit": "pmol oocyte-1 h-1"},
      {"measurement": "Vmaxapp/KMapp ([3H]CQ + PPQ)", "setting": "[PPQ] 125 µM", "result": 0.0728, "unit": "h⁻¹"},
      {"measurement": "KMapp ([3H]CQ + PPQ)", "setting": "[PPQ] 200 µM", "result": 365.31, "unit": "µM"},
      {"measurement": "Vmaxapp ([3H]CQ + PPQ)", "setting": "[PPQ] 200 µM", "result": 21.83, "unit": "pmol oocyte-1 h-1"},
      {"measurement": "Vmaxapp/KMapp ([3H]CQ + PPQ)", "setting": "[PPQ] 200 µM", "result": 0.0619, "unit": "h⁻¹"},
      {"measurement": "KMapp ([3H]CQ + PPQ)", "setting": "[PPQ] 350 µM", "result": 375.85, "unit": "µM"},
      {"measurement": "Vmaxapp ([3H]CQ + PPQ)", "setting": "[PPQ] 350 µM", "result": 19.75, "unit": "pmol oocyte-1 h-1"},
      {"measurement": "Vmaxapp/KMapp ([3H]CQ + PPQ)", "setting": "[PPQ] 350 µM", "result": 0.0554, "unit": "h⁻¹"},
      {"measurement": "KMapp ([3H]CQ + PPQ)", "setting": "[PPQ] 500 µM", "result": 353.13, "unit": "µM"},
      {"measurement": "Vmaxapp ([3H]CQ + PPQ)", "setting": "[PPQ] 500 µM", "result": 17.90, "unit": "pmol oocyte-1 h-1"},
      {"measurement": "Vmaxapp/KMapp ([3H]CQ + PPQ)", "setting": "[PPQ] 500 µM", "result": 0.0540, "unit": "h⁻¹"},
      {"measurement": "β^CQ, partiality factor", "setting": "fractional velocity plot, factor by which PPQ reduces the transport velocity of CQ", "result": "0.31 ± 0.04"},
      {"measurement": "Kd", "setting": "secondary plot, half-maximal inhibitory concentration of Vmax,app versus inhibitor concentration, read-out: αKS, dissociation constant between the drug and the PfCRT complex with the other drug", "result": "210 ± 120", "unit": "µM"},
      {"measurement": "Kd", "setting": "secondary plot, half-maximal inhibitory concentration of Vmax,app/KM,app versus inhibitor concentration, read-out: KS, dissociation constant between the drug and PfCRT", "result": "250 ± 150", "unit": "µM"},
      {"measurement": "α (αKS divided by KS)", "setting": "secondary plots, label = prebound drug", "result": "1.0 ± 0.3"}
    ]}
  ]
}
